Results reported in PubChem BioAssay (NCI).
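GI50 = concentration required for 50% inhibition of growth. The concentration for full growth arrest is given as TGI.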

Assays:
Experiment in all cases: NCI tumour cell line growth inhibition, 384-well format
[1] = system: 786-0 renal
[2] = system: A498 renal
[3] = system: A549 NSCLC
[4] = system: ACHN renal
[5] = system: BT-549 breast
[6] = system: CAKI-1 renal
[7] = system: CCRF-CEM leukemia
[8] = system: COLO 205 colon
[9] = system: DU-145 prostate
[10] = system: HCC-2998 colon
[11] = system: HCT-116 colon
[12] = system: HCT-15 colon
[13] = system: HL-60(TB) leukemia
[14] = system: HOP-62 NSCLC
[15] = system: HOP-92 NSCLC
[16] = system: HT29 colon
[17] = system: IGROV1 ovarian
[18] = system: K-562 leukemia
[19] = system: KM12 colon
[20] = system: LOX IMVI melanoma
[21] = system: M14 melanoma
[22] = system: MALME-3M melanoma
[23] = system: MCF7 breast
[24] = system: MDA-MB-231 breast
[25] = system: MDA-MB-435 melanoma
[26] = system: MDA-MB-468 breast
[27] = system: MOLT-4 leukemia
[28] = system: NCI-H226 lung
[29] = system: NCI-H23 lung

## COc1cc2c(cc1OC(C)C)[C@H](c1ccc(Cl)cc1)N(c1ccc(N(C)CC3CCC(N4CCN(C)C(=O)C4)CC3)cc1)C(=O)C2 (some centres not stated)
[1]
  GI50: 1720 nM
  TGI: 3120 nM
[2]
  GI50: 240 nM
  TGI: 1320 nM
[3]
  GI50: 387 nM
  TGI: 1550 nM
[4]
  GI50: 243 nM
  TGI: 1280 nM
[5]
  GI50: 1580 nM
  TGI: 2940 nM
[6]
  GI50: 146 nM
  TGI: 1180 nM
[7]
  GI50: 1940 nM
  TGI: 3360 nM
[8]
  GI50: 1860 nM
  TGI: 3290 nM
[9]
  GI50: 1920 nM
  TGI: 3510 nM
[10]
  GI50: 1730 nM
  TGI: 3120 nM
[11]
  GI50: 349 nM
  TGI: 1490 nM
[12]
  GI50: 1820 nM
  TGI: 3260 nM
[13]
  GI50: 1960 nM
  TGI: 3380 nM
[14]
  GI50: 2070 nM
  TGI: 3520 nM
[15]
  GI50: 1590 nM
  TGI: 2960 nM
[16]
  GI50: 1790 nM
  TGI: 3220 nM
[17]
  GI50: 1370 nM
  TGI: 2700 nM
[18]
  GI50: 1760 nM
  TGI: 3170 nM
[19]
  GI50: 1900 nM
  TGI: 3350 nM
[20]
  GI50: 946 nM
  TGI: 2130 nM
[21]
  GI50: 943 nM
  TGI: 2160 nM
[22]
  GI50: 1180 nM
  TGI: 2430 nM
[23]
  GI50: 378 nM
  TGI: 1570 nM
[24]
  GI50: 1800 nM
  TGI: 3200 nM
[25]
  GI50: 2010 nM
  TGI: 3460 nM
[26]
  GI50: 2030 nM
  TGI: 3470 nM
[27]
  GI50: 37.8 nM
  TGI: 138 nM
[28]
  GI50: 134 nM
  TGI: 374 nM
[29]
  GI50: 1930 nM
